Paper PMC12640959, “Elucidation of anti-SARS-CoV-2 and anti-inflammatory bioactives in Qingyan Dropping Pills via integrated in silico screening and bioactivity validation” (Frontiers in Medicine, 2025)

Test system: SARS-CoV-2 Omicron BA.5
Experiment: cytopathic effects (CPE) inhibition assay in Vero E6 cells
Format: cell-based
Settings: result in words

## C[C@@H]1O[C@@H](O[C@H]2[C@H](Oc3cc(O)c4c(=O)cc(-c5ccc(O)cc5)oc4c3)O[C@H](CO)[C@@H](O)[C@@H]2O)[C@H](O)[C@H](O)[C@H]1O [RHO, rhoifolin]
  inhibition of the SARS-CoV-2 Omicron BA.5 variant: failed to inhibit
